Source: paper PMC7822474, “Repurposing the McoTI-II Rigid Molecular Scaffold in to Inhibitor of ‘Papain Superfamily’ Cysteine Proteases” (Pharmaceuticals, 2020)
Where no end group is shown, it is not given here.

Key:
papain [1] = assay: Proteolytic activity assay, BSA digestion by papain on SDS-PAGE; type: biochemical; conditions: BSA 1.0 mg/mL, 0.1 M sodium acetate pH 5.5, 0.1% SDS, E:S 1:10, 40 °C, 8 min, preincubated with papain
Protocol: The protein substrate, BSA, at a concentration of 1.0 mg/mL in 0.1 M sodium acetate buffer (pH 5.5) containing 0.1% SDS was incubated with papain, papain preincubated with E-64, and papain preincubated with Mco-CPI protein. The papain enzyme used was pre-activated with 2 mM dithiothreitol. The ratio of enzyme to the substrate (E:S) was maintained at 1:10. The digestion was allowed to be carried at 40 °C for 8 min. This method was adapted from Zucker et al., 1985 [59]. The degradation products of each reaction were analysed on 12% SDS-PAGE gel.

papain [2] = conditions: E-64 and its derivatives; cited from earlier work
trypsin [3] = assay: Inhibition of trypsin by recombinant McoTI-II (ZFR-AMC substrate); type: biochemical
trypsin [4] = target: trypsin
trypsin [5] = conditions: cited from earlier work
Excerpt: McoTI-II is a stable cyclic peptide found in seeds of the plant Momordica cochinchinensis. It belongs to the trypsin inhibitor subfamily of cyclotides and has been the most preferred framework for grafting and engineering novel biological activities. […] A range of substitutions in the trypsin inhibitory reactive site (loop 1) and the P1 residue have been used to develop a series of McoTI-I analogs with specificity towards alternate proteases with moderate affinity. […] Therefore, we expect that a modification involving a backbone cyclization would lead to further improvement in the e ...

Compound: CC(C)C[C@H](NC(=O)[C@H]1O[C@@H]1C(=O)O)C(=O)NCCCCN=C(N)N [E-64]
- inhibition of papain proteolytic activity on BSA (in words) (papain [1]): completely inhibit the proteolytic activity of papain with no digestion products observed on the gel
- IC50 against papain (in words) (papain [2]): nanomolar range

Compound: McoTI-II recombinant protein: McoTI-II protein with tags, recombinantly expressed as starting control (SGSDGGVCPKILKKCRRDSDCPGACICRGNGYCG; ends and bridges not checked; also: with tags (recombinant); UniProt P82409 1-34, looked up)
- % trypsin inhibition, concentration dependence (in words) (trypsin [3]; Supplementary Figure S6E): An increase in % trypsin inhibition
- IC50 (trypsin [3]; ZFR-AMC substrate, 50 mM Tris-HCl pH 8.0, 50 mM NaCl, 5 mM CaCl2, three technical replicates, read-out: IC50 against trypsin): 2.12 µM

Compound: McoTI-II (Momordica cochinchinensis trypsin inhibitor-II), recombinant protein with tags (from UniProt P82409 1-34) (natural protein)
- inhibition of trypsin activity on ZFR-AMC (fluorescence), 50 mM Tris-HCl pH 8.0, 50 mM NaCl, 5 mM CaCl2 (trypsin [4]): 2.12 µM

Compound: McoTI-II: stable cyclic peptide found in seeds of the plant Momordica cochinchinensis (cyclo(SGSDGGVCPKILKKCRRDSDCPGACICRGNGYCG); disulfide (positions not given here); ends not checked; also: three disulfides, pairing not given here; UniProt P82409 1-34, looked up)
- trypsin inhibition range (in words) (trypsin [5]; McoTI-II purified from plant sources or chemically synthesized as a cyclic molecule): sub-nM range
- trypsin inhibitory activity (in words) (trypsin [5]; natural McoTI-II): potent (sub-nM)
